Assay results taken from patent publication US20030176456A1, “Methods for reducing alcohol cravings in chronic alcoholics” (priority 2001, published 2003).
Where two headings read alike, the source gives them in different places.

What was measured:
[1] = molecular target: wild type BDZ receptors (cerebral cortical membranes); experiment: Radioligand displacement at cerebral cortical membranes; assay type: binding; settings: read-out: Displacement of [3H] flunitrazepam in vitro, IC50; rat cerebral cortical membranes; mean of three or more experiments
Experimental: [^3H] […] In brief, rats were sacrificed by decapitation, and the cerebral cortex removed. […] Tissue was resuspended in an equal volume of buffer and recentrifuged. This procedure was repeated a total of three times and the tissue resuspended in 50 volumes of buffer. Incubations (1 mL) consisted of tissue (0.3 mL), drug solution (0.1 mL), buffer (0.5 mL) and radioligand (0.1 mL). […] The IC50 values were estimated using Hill plots.

α2β3γ2 GABAA receptor [2] = molecular target: T1, α2β3γ2 GABAA receptor (Homo sapiens, UniProt P18507+P47869); experiment: Binding affinity at recombinant GABAA receptors (Ltk cells stably transfected); settings: recombinant αxβ3γ2; read-out: Ki α2
T1 construct: expressed in transfected cells
T1 sequence (P47869 29-451): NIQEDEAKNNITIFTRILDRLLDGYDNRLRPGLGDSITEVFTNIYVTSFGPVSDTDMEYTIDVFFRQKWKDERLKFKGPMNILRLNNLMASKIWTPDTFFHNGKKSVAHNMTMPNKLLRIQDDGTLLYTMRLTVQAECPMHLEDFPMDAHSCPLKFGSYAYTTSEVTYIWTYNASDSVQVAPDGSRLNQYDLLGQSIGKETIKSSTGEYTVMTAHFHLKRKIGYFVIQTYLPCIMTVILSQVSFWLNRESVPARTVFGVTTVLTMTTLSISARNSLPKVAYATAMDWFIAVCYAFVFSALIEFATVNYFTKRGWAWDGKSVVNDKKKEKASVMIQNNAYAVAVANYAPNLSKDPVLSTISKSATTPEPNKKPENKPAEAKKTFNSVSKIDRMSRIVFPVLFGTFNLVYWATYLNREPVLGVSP
T1 sequence (P28472 26-473 partner): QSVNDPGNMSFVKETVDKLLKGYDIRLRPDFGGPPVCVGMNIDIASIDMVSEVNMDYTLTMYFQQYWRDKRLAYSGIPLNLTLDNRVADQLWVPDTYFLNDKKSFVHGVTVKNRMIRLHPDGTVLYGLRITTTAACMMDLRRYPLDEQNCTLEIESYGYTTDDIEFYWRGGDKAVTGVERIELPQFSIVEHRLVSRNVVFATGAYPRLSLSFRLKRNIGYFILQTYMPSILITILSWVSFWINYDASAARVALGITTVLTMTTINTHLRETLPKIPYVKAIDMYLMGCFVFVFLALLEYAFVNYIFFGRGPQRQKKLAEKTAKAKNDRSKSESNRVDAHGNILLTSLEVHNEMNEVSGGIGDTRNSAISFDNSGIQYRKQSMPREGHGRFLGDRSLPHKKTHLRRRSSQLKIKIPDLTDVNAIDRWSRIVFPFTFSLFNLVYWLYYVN
T1 sequence (P18507 40-475): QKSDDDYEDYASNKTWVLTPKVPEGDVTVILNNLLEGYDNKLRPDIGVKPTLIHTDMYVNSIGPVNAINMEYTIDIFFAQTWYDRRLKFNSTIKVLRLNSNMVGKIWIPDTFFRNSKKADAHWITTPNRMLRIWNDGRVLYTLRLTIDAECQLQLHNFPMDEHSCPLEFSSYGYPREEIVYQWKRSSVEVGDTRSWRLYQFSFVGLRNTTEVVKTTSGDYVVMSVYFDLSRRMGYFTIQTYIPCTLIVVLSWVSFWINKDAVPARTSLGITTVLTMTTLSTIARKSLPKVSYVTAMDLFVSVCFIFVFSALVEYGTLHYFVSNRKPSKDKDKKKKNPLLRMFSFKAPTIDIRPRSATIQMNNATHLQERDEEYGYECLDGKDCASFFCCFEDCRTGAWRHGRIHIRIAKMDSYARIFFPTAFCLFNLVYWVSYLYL

α6β3γ2 GABAA receptor [3] = molecular target: T2, α6β3γ2 GABAA receptor (Homo sapiens, UniProt P18507+Q16445); experiment: as above
T2 construct: expressed in transfected cells
T2 sequence (Q16445 20-453): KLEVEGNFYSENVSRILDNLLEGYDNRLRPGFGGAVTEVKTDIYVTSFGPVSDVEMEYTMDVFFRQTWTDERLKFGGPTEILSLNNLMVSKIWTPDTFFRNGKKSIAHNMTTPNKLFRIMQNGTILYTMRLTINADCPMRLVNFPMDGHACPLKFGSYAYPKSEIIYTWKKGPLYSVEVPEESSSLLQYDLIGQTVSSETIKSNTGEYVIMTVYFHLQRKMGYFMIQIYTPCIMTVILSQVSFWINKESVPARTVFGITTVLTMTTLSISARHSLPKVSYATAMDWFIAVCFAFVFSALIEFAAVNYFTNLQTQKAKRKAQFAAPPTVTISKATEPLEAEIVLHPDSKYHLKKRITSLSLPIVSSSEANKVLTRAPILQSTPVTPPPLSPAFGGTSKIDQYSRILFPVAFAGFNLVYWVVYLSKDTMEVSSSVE
T2 sequence (P28472 26-473 partner): as the sequence (P28472 26-473 partner) above
T2 sequence (P18507 40-475): as the sequence (P18507 40-475) above

α5β3γ2 GABAA receptor [4] = molecular target: T3, α5β3γ2 GABAA receptor (Homo sapiens, UniProt P18507+P31644); experiment: as above
T3 construct: expressed in transfected cells
T3 sequence (P31644 32-462): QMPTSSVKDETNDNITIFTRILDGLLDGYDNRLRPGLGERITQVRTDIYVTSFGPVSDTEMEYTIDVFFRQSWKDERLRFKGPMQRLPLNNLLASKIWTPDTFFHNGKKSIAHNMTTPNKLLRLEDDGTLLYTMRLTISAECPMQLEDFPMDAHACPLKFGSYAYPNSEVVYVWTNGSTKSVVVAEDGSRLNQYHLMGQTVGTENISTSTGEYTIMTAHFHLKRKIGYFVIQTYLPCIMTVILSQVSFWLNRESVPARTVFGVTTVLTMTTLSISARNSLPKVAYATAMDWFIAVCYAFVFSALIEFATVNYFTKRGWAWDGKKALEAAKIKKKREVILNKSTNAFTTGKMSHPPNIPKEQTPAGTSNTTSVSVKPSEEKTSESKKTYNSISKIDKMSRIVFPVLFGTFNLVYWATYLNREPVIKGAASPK
T3 sequence (P28472 26-473 partner): as the sequence (P28472 26-473 partner) above
T3 sequence (P18507 40-475): as the sequence (P18507 40-475) above

α1β3γ2 GABAA receptor [5] = molecular target: T4, α1β3γ2 GABAA receptor (Homo sapiens, UniProt P14867+P18507); experiment: as above; settings: recombinant αxβ3γ2; read-out: Ki α1
T4 construct: expressed in transfected cells
T4 sequence (P14867 28-456): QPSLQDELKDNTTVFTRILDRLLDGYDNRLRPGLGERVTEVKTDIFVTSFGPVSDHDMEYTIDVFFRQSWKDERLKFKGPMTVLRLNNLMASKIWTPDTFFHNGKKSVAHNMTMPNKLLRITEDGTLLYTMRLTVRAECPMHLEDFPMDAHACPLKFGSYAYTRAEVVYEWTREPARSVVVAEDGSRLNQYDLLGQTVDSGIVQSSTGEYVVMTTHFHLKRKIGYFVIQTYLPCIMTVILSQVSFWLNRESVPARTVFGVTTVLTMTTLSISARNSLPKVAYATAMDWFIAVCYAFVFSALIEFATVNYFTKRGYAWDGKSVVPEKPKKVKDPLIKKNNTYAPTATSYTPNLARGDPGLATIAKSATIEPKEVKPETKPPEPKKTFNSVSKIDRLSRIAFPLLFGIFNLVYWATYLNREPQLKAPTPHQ
T4 sequence (P28472 26-473 partner): as the sequence (P28472 26-473 partner) above
T4 sequence (P18507 40-475): as the sequence (P18507 40-475) above

α3β3γ2 GABAA receptor [6] = molecular target: T5, α3β3γ2 GABAA receptor (Homo sapiens, UniProt P18507+P34903); experiment: as above; settings: recombinant αxβ3γ2; read-out: Ki α3
T5 construct: expressed in transfected cells
T5 sequence (P34903 29-492): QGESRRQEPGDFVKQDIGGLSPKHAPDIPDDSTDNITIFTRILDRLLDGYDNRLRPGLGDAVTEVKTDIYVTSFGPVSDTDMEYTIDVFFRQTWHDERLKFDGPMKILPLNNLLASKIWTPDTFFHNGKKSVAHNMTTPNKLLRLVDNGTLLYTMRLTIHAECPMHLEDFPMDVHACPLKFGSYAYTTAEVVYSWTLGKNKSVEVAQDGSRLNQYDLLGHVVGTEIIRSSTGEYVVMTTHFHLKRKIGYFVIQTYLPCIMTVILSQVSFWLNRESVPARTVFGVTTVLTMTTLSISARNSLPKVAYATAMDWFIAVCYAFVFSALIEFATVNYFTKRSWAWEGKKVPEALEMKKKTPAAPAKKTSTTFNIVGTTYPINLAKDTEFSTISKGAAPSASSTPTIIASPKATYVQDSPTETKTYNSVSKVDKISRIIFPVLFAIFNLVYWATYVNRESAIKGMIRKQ
T5 sequence (P28472 26-473 partner): as the sequence (P28472 26-473 partner) above
T5 sequence (P18507 40-475): as the sequence (P18507 40-475) above

P rats [7] = assay type: in vivo, rat; settings: i.p.; chlordiazepoxide 10 mg/kg, βCCt 15 mg/kg; 10 min open field
Experimental: (§1) Ambulatory count in the open field was recorded individually for 10 min in a plexiglas chamber (42 cm×42 cm 30 cm) using a Digiscan activity monitoring system (Acuscan Electronics, Columbus, Ohio, USA) (for details of the monitoring system see June et al., 1998d).
(§2) βCCt (15 mg/kg i.p.) and chlordiazepoxide (10 mg/kg i.p.) were administered 15 and 30 min, respectively, prior to the rats being placed in the open field. EtOH (1.25 g/kg) was given 5 min prior to placing the rats in the open field. When βCCt was given in combination with either chlordiazepoxide or EtOH, it was given 10 min prior to chlordiazepoxide and EtOH. As noted above, βCCt was administered in Tween-20 solution, while all other drugs were mixed in sterile saline. Animals were tested between 9 am-3 pm.
(§3) Ambulatory count in the open field was recorded individually for 10 min in a plexiglas chamber (42 cm×42 cm 30 cm) using a Digiscan activity monitoring system (Acuscan Electronics, Columbus, Ohio, USA) (for details of the monitoring system see June et al., 1998b).
(§4) βCCt (5-60 mg/kg i.p.) and chlordiazepoxide (2.5, 5, 10 mg/kg i.p.) were administered 15 and 30 min, respectively, prior to being placed in the plus maze or open field. EtOH (1.25 g/kg) was given 5 min prior to placing the rats in the open field. When βCCt was given in combination with either chlordiazepoxide or EtOH, it was given 10 min prior to chlordiazepoxide and EtOH. As noted above, βCCt was administered in Tween-20 solution, while all other drugs were mixed in sterile saline. Animals were tested between 9am-3 pm.

HAD-1 rats = assay type: in vivo, rat; settings: i.p.; chlordiazepoxide 10 mg/kg, βCCt 15 mg/kg; 10 min open field
Experimental: as §1, §2, §3, §4

α3β3γ2 GABAA receptor [8] = molecular target: T5, α3β3γ2 GABAA receptor; settings: footnoted b or c; read-out: Ki α3; cited from earlier work
α6β3γ2 GABAA receptor [9] = molecular target: T2, α6β3γ2 GABAA receptor; settings: footnoted b or c; read-out: Ki α6; cited from earlier work
α2β3γ2 GABAA receptor [10] = molecular target: T1, α2β3γ2 GABAA receptor; settings: footnoted b or c; read-out: Ki α2; cited from earlier work
α5β3γ2 GABAA receptor [11] = molecular target: T3, α5β3γ2 GABAA receptor; settings: footnoted b or c; read-out: Ki α5; cited from earlier work
α1β3γ2 GABAA receptor [12] = molecular target: T4, α1β3γ2 GABAA receptor; settings: footnoted b (Schering Labs, unpublished) or c (McKernan et al., 2000); read-out: Ki α1; cited from earlier work
P rats [13] = experiment: EtOH and sucrose responding after oral (gavage) administration; assay type: in vivo, rat
Excerpt: In this study we compared the suppressant effect of βCCt and 3-PBC with naltrexone, a currently used alcohol antagonist on the market. As it is shown in FIG. 29A-B, orally administered βCCt can reduce alcohol responding, however, the effects are not dose related. In addition, 24 hr after administration of βCCt, it continues to reduce alcohol responding with selected doses. […] The suppressant effects of naltrexone in reducing alcohol responding are also dissipated 24 hr after the administration. […] Unlike naltrexone, the suppressant effects observed by βCCt and 3-PBC are selective for alcohol, and not reinforcers in general.

GABAA α5β3γ2 receptors = molecular target: T6, GABAA α5β3γ2 receptors (Rattus norvegicus, UniProt P18508+P19969); experiment: Xenopus oocyte expression assay, modulation of GABA current; assay type: cell-based; settings: saturating 1-10 μM modulator with EC50 GABA (30 μM); mean±S.D.
T6 construct: expressed in transfected cells; host or cells: Xenopus laevis oocytes injected with cRNA

GABAA α4β3γ2 receptors = experiment: as above; assay type: cell-based, rat
GABAA α3β3γ2 receptors = experiment: as above; assay type: cell-based, rat; settings: saturating 1-10 μM modulator with EC50 GABA (30 μM); mean±S.D.
GABAA α1β3γ2 receptors = molecular target: T7, GABAA α1β3γ2 receptors (Rattus norvegicus, UniProt P18508+P62813); experiment: as above; assay type: cell-based; settings: saturating 1-10 μM modulator with EC50 GABA (50 μM); mean±S.D.
T7 construct: expressed in transfected cells; host or cells: Xenopus laevis oocytes injected with cRNA
T7 sequence (P62813 28-455): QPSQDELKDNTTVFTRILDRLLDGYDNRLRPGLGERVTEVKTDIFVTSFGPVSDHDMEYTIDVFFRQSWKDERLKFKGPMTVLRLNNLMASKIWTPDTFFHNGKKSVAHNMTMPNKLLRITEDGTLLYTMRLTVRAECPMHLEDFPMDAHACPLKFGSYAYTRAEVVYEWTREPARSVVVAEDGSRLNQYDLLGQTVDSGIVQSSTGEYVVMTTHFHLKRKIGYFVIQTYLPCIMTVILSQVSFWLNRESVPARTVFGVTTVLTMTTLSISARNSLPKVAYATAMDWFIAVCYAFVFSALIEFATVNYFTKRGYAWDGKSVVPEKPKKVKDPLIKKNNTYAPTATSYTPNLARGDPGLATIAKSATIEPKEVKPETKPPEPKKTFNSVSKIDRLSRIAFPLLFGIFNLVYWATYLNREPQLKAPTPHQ
T7 sequence (P63079 26-473 partner): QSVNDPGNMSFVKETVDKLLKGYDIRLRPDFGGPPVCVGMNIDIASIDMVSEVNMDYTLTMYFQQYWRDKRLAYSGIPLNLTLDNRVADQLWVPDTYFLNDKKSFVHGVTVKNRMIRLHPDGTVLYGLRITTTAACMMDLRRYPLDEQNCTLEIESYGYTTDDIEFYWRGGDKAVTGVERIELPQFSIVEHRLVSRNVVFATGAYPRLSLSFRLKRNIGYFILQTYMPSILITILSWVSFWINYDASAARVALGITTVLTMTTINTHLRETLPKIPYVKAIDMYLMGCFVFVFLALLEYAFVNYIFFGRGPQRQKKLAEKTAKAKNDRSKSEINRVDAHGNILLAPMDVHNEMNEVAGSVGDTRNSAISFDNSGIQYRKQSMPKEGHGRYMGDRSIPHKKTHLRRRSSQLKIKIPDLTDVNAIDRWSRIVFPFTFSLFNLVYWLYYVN
T7 sequence (P18508 39-466): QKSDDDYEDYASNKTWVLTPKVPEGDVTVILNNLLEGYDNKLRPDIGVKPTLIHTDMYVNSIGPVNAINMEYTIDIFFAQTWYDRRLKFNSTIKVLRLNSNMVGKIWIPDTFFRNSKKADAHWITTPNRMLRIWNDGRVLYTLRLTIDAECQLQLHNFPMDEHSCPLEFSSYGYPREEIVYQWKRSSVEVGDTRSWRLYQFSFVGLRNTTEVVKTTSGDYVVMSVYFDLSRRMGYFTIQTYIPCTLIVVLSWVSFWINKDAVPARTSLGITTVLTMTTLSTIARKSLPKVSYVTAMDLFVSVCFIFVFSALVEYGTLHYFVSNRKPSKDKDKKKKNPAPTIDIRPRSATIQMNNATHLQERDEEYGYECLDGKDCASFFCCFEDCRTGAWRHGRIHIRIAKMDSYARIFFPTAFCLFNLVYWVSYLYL

GABAA α2β3γ2 receptors = experiment: as above; assay type: cell-based, rat; settings: saturating 1-10 μM modulator with EC50 GABA (50 μM); mean±S.D.
[14] = tested on: recombinant GABAA α1 through α5 (β3γ2) receptors; experiment: Xenopus oocyte expression assay, result stated across several subtypes; assay type: cell-based, rat; settings: saturating concentration; compared with 3-PBC
[15] = tested on: alcohol-preferring (P) rats; settings: parenteral and oral administration (June et al., 1998b); cited from earlier work
squirrel monkeys = settings: Rowlett et al., unpublished observation; cited from earlier work
[16] = June et al., 1998e; cited from earlier work
[17] = recombinant αxβ3γ2, read-out: Ki α6
[18] = recombinant αxβ3γ2, read-out: Ki α5

What does the source list for `CCOc1cc2c(cn1)[nH]c1ccccc12` [3-EBC]?
IC50 [1]: 24 nM; Ki (α2β3γ2 GABAA receptor [2]): 25.1 nM; Ki (α6β3γ2 GABAA receptor [3]; [17]): > 1000 nM; Ki (α5β3γ2 GABAA receptor [4]; [18]): 868 nM; Ki (α1β3γ2 GABAA receptor [5]): 6.43 nM

Which IC50 [1] does the source give for `COc1cc2c(cn1)[nH]c1ccccc12` [3-methoxy] here?
The IC50 was 124 nM.

With `Cc1nnc2ccc(-c3cccc(C(F)(F)F)c3)nn12` [CL218, 872, reference compound] as the compound, how does the Ki (α2β3γ2 GABAA receptor [2]) read?
The Ki was 1960 nM.

And the Ki (α6β3γ2 GABAA receptor [3]; [17])?
The Ki was over 1000 nM.

What about the Ki (α5β3γ2 GABAA receptor [4]; [18]) of the same compound?
Its Ki is 561 nM.

And the Ki (α3β3γ2 GABAA receptor [6])?
The Ki was 1160 nM.

And the Ki (α1β3γ2 GABAA receptor [5])?
Its Ki is 57 nM.

For `CNC1=Nc2ccc(Cl)cc2C(c2ccccc2)=[N+]([O-])C1` [Chlordiazepoxide, reference compound], which “locomotor activity, drug given alone” value (P rats [7]) is on record?
Its value is “profound and comparable reduction in locomotor activity”.

What about the “locomotor activity, drug given alone” value (HAD-1 rats) of the same compound?
Its value is “profound and comparable reduction in locomotor activity”.

Which results are given for `Cn1ncnc1COc1nn2c(-c3cc(F)ccc3F)nnc2cc1C(C)(C)C` [L-838, 417]?
Ki (α3β3γ2 GABAA receptor [8]): 0.67 nM; Ki (α6β3γ2 GABAA receptor [9]): 2.25 nM; Ki (α2β3γ2 GABAA receptor [10]): 0.67 nM; Ki (α5β3γ2 GABAA receptor [11]): 267 nM; Ki (α1β3γ2 GABAA receptor [12]): 0.79 nM

What does the source list for `O=C1CC[C@@]2(O)[C@H]3Cc4ccc(O)c5c4[C@@]2(CCN3CC2CC2)[C@H]1O5` [Naltrexone, naltrexone, reference compound]?
responding for sucrose (P rats [13]; oral (gavage) 75 mg/kg): significantly reduces responding for sucrose; EtOH responding (P rats [13]; oral (gavage), βCCt 15 & 30 mg/kg, 3-PBC 30-75 mg/kg, naltrexone 30-75 mg/kg): significantly reduces EtOH responding; EtOH responding 24 hours after administration (P rats [13]; oral (gavage), βCCt 15 & 75 mg/kg): dissipated

Which “% of GABA response, α5” value (GABAA α5β3γ2 receptors) does the source give for `CCOC(=O)c1ncn2c1CN(C)C(=O)c1cc(F)ccc1-2` [Ro15-1788, flumazenil] here?
The value was 96±6%.

What about the “% of GABA response, α4” value (GABAA α4β3γ2 receptors; saturating 1-10 μM modulator with EC50 GABA (10 μM), mean±S.D.) of the same compound?
The value was 132±6%.

And the “% of GABA response, α3” value (GABAA α3β3γ2 receptors)?
Its value is 118±7%.

And the “% of GABA response, α1” value (GABAA α1β3γ2 receptors)?
The value was 99±5%.

What about the “% of GABA response, α2” value (GABAA α2β3γ2 receptors) of the same compound?
The value was 115±4%.

And the “efficacy profile at the α1 through α5 receptors” value [14]?
The value was “statistically similar to 3-PBC”.

And the alcohol-maintained responding [15]?
The alcohol-maintained responding was “did not alter EtOH-maintained responding”.

What about the “activity in observational studies vs saline controls” value (squirrel monkeys) of the same compound?
The value was “decreased overall activity”.

With `CCOC(=O)c1ncc2[nH]c3cccc(OC(C)C)c3c2c1C` [ZK 93426] as the compound, how does the “% of GABA response, α5” value (GABAA α5β3γ2 receptors) read?
The value was about 96±6%.

What about the Ki (α3β3γ2 GABAA receptor [8]) of the same compound?
The Ki was 24 nM.

And the “% of GABA response, α4” value (GABAA α4β3γ2 receptors)?
The value was 137±8%.

And the “% of GABA response, α3” value (GABAA α3β3γ2 receptors)?
The value was 147±10%.

And the “blocking the sedative actions of alcohol” value [16]?
Its value is “capable of blocking”.

What about the Ki (α6β3γ2 GABAA receptor [9]) of the same compound?
The Ki was 1600 nM.

What about the Ki (α2β3γ2 GABAA receptor [10]) of the same compound?
Its Ki is 31 nM.

And the “% of GABA response, α1” value (GABAA α1β3γ2 receptors)?
Its value is 146+11%.

And the “% of GABA response, α2” value (GABAA α2β3γ2 receptors)?
The value was 140±13%.

And the Ki (α5β3γ2 GABAA receptor [11])?
The Ki was 3 nM.

What about the alcohol-maintained responding [15] of the same compound?
The alcohol-maintained responding was “can selectively reduce alcohol-maintained responding”.

And the Ki (α1β3γ2 GABAA receptor [12])?
Its Ki is 11 nM.

For `Cc1ccc(-c2nc3ccc(C)cn3c2CC(=O)N(C)C)cc1` [Zolpidem, reference compound], which Ki (α6β3γ2 GABAA receptor [3]) is on record?
The Ki was over 1000 nM.

What about the Ki (α5β3γ2 GABAA receptor [4]) of the same compound?
Its Ki is over 1000 nM.

Which IC50 [1] does the source give for `CCOC(=O)c1cc2c(cn1)[nH]c1ccccc12` [βCCE] here?
The IC50 was 5 nM.
